PMC7160673, “A Degenerate Peptide Library Approach to Reveal Sequence Determinants of Methyllysine-Driven Protein Interactions” (Frontiers in Cell and Developmental Biology, 2020)

Legend:
Type in all cases: binding
CST 9733 (anti-H3K27me3) = assay: Histone peptide microarray, CST 9733; details: histone peptide array signal normalized to the highest peptide average per subarray, hits; CST 9733 LOT:14 dilution 1:5,000
[1] = system: Millipore #07-449, anti-H3K27me3; assay: Histone peptide microarray, Millipore 07-449; details: Millipore 07-449 (anti-H3K27me3) hits, average signal per peptide
53BP1 TTD = assay: Histone peptide microarray, 53BP1 TTD; details: 53BP1 TTD hits, average signal per peptide
How it was run: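 Steps: print histone peptide microarray; incubate with protein or antibody in 25 mM HEPES pH 7.5, 100 mM NaCl, 0.5% BSA, 0.1% NP-40; wash three times for 5 min (PBS, 0.1% Tween-20); apply anti-GST at 1:2,000; wash; apply AlexaFluor 647-labeled secondary at 1:5,000; scan fluorescence.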

[2] = system: Abcam #ab8895, anti-H3K4me1; assay: Histone peptide microarray, Abcam ab8895; details: Abcam ab8895 (anti-H3K4me1) hits, average signal per peptide
[3] = system: Active Motif #39161, anti-H3K9me3; assay: Histone peptide microarray, Active Motif 39161; details: Active Motif 39161 (anti-H3K9me3) hits
[4] = system: ABClonal #A2355, anti-H3K4me1; assay: Histone peptide microarray, ABclonal A2355; details: Abclonal A2355 (anti-H3K4me1) hits
Protocol: (§1) Peptide microarrays were fabricated using an Aushon 2470 microarrayer and used as described ([Cornett et al., 2017]) with the following modifications. Protein and antibody hybridization steps were performed in buffer containing 25 mM HEPES pH 7.5, 100 mM NaCl, 0.5% BSA (w/v), and 0.1% NP-40. Slides were washed 3 × 5 min in PBS supplemented with 0.1% Tween-20 between each hybridization step. Antibodies used were primary anti-GST (Sigma #7781, 1:2,000 dilution) and an AlexaFluor 647-labeled secondary antibody (Life Technologies A-21245, 1:5,000 dilution). […] Full lists of peptides queried by array analysis are in Supplementary Table S2.

CDYL2 chromo = biological target: T1, CDYL2 chromo (Homo sapiens, UniProt Q8N8U2); assay: Histone peptide microarray, CDYL2 chromo; details: normalized histone peptide array signal, hits; hybridization with 1 M CDYL2 chromo (so in the source); two subarrays
T1 construct: 1-75; made in house; host or cells: E. coli BL21
T1 sequence (Q8N8U2 1-75): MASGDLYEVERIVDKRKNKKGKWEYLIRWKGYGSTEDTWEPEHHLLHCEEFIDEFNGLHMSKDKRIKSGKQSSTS
Protocol: as §1

MPP8 chromo = biological target: T2, MPP8 chromo (Homo sapiens, UniProt Q99549); assay: Histone peptide microarray, MPP8 chromo; details: normalized histone peptide array signal, hits; hybridization with 1 M MPP8 chromo (so in the source); two subarrays
T2 construct: 50-118; made in house; host or cells: E. coli BL21
T2 sequence (Q99549 50-118): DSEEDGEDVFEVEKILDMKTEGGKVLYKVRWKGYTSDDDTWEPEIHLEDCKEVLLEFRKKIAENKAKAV
Protocol: as §1

Row | Substance | Avg Signal (CST 9733 (anti-H3K27me3)) | Avg Signal [1] | Avg Signal (53BP1 TTD) | Avg Signal [2] | Avg Signal [3] | Avg Signal [4] | Avg Signal (CDYL2 chromo) | Avg Signal (MPP8 chromo)
1 | ACitTK(Me2)QTARKSTGGKAPRKQL-K(Biot)-NH2 [H3.1Cit2K4me2] | 0.0001108 | 0.002853 | 0.6324 | 0.2048 | 2.176e-5 | 0.3053 | – | –
2 | AGGK(Ac)AGK(Ac)DSGK(Ac)AKAKAVSR-Peg-Biot [H2A.Z.2K4acK7acK11ac] | – | 0.003296 | – | – | 0.02451 | – | 0.04723 | –
3 | AR(Me2a)TK(Me3)QTARK(Ac)STGGK(Ac)APRK(Ac)QL-K(Biot)-NH2 [H3.1R2me2aK4me3K9acK14acK18ac] | 0.007631 | 0.02578 | 0.02297 | 0.04451 | 0.01091 | 0.01872 | – | –
4 | AR(Me2s)TK(Me2)QTARKSTGGKAPRKQL-K(Biot)-NH2 [H3.1R2me2sK4me2] | 0.003211 | – | 0.2755 | 0.2778 | – | 0.3527 | – | –
5 | AR(Me)TK(Me2)QTARKSTGGKAPRKQL-K(Biot)-NH2 [H3.1R2me1K4me2] | 0.0008431 | – | 0.4867 | 0.2976 | 0.0007938 | 0.4048 | – | –
6 | ARTAQTARK(Me2)STGGKA-Peg-Biot [Peptide H3.1K4AK9me2] | – | – | – | – | 0.007885 | – | – | 0.07994
7 | ARTK(Ac)QTARK(Me2)STGGK(Ac)APRK(Ac)QL-K(Biot)-NH2 [H3.1K4acK9me2K14acK18ac] | 3.787e-5 | 0.005667 | 0.5858 | 0.0002166 | – | – | – | 0.2405
8 | ARTK(Ac)QTARK(Me3)STGGK(Ac)APRK(Ac)QL-K(Biot)-NH2 [H3.1K4acK9me3K14acK18ac] | 0.01317 | 0.04004 | 0.09657 | – | 0.7316 | – | 0.3091 | 0.4242
9 | ARTK(Ac)QTARK(Me3)STGGKAPRKQL-K(Biot)-NH2 [H3.1K4acK9me3] | 0.00836 | 0.01932 | – | – | 0.7317 | – | 0.363 | 0.6556
10 | ARTK(Ac)QTARK(Me)STGGK(Ac)APRK(Ac)QL-K(Biot)-NH2 [H3.1K4acK9me1K14acK18ac] | – | 0.004673 | 0.1278 | 0.5059 | – | – | – | 0.07749
11 | ARTK(Me2)QpTARK(Ac)STGGK(Ac)APRK(Ac)QL-K(Biot)-NH2 [H3.1K4me2T6pK9acK14acK18ac] | 0.0006457 | – | 0.3467 | 0.2093 | – | 0.3869 | – | –
12 | ARTK(Me2)QpTARKSTGGKAPRKQL-K(Biot)-NH2 [Peptide H3.1K4me2T6p] | 0.0001379 | – | 0.2267 | 0.1917 | 0.000965 | 0.3499 | – | –
13 | ARTK(Me3)QTAR(Me2a)K(Me3)STGGKAPRKQL-K(Biot)-NH2 [H3.1K4me3R8me2aK9me3] | 0.01316 | 0.06329 | – | – | 0.5927 | – | 0.3995 | 0.8021
14 | ARTK(Me3)QTARK(Me2)STGGKA-Peg-Biot [H3.1K4me3K9me2] | 0.005297 | 0.04855 | – | 0.004396 | 0.02282 | – | 0.1809 | 0.4645
15 | ARTK(Me3)QTARKSTGGKAPRK(Ac)QL-K(Biot)-NH2 [H3.1K4me3K18ac] | 0.006885 | 0.03479 | 0.08895 | 0.01446 | 0.09175 | 0.001684 | – | –
16 | ARTKQTAR(Me2a)K(Me2)STGGKAPRKQL-K(Biot)-NH2 [H3.1R8me2aK9me2] | 0.0007823 | – | 0.547 | 0.1269 | 0.006391 | – | 0.1889 | 0.6312

Row | Substance | Avg Signal (CST 9733 (anti-H3K27me3)) | Avg Signal [1] | Avg Signal (53BP1 TTD) | Avg Signal [2] | Avg Signal [3] | Avg Signal [4] | Avg Signal (CDYL2 chromo) | Avg Signal (MPP8 chromo)
17 | ARTKQTAR(Me2a)K(Me)STGGKAPRKQL-K(Biot)-NH2 [H3.1R8me2aK9me1] | – | – | 0.1501 | 0.513 | 0.00542 | 0.006716 | – | 0.4258
18 | ARTKQTAR(Me2s)K(Me2)STGGKAPRKQL-K(Biot)-NH2 [H3.1R8me2sK9me2] | 0.0002216 | – | 0.3791 | 0.1111 | – | – | 0.1904 | 0.6538
19 | ARTKQTAR(Me2s)K(Me3)STGGKAPRKQL-K(Biot)-NH2 [H3.1R8me2sK9me3] | 0.01037 | 0.05357 | 0.1271 | 0.1225 | 0.5557 | – | 0.3941 | 1
20 | ARTKQTAR(Me2s)K(Me)STGGKAPRKQL-K(Biot)-NH2 [H3.1R8me2sK9me1] | 0.01277 | – | 0.2791 | 0.3635 | 0.003577 | – | – | 0.1744
21 | ARTKQTARK(Me2)STGGKAPRKQL-K(Biot)-NH2 [H3.1K9me2 H3.1(1-20)] | 0.0005298 | – | – | – | – | – | 0.2996 | 0.7317
22 | ARTKQTARK(Me3)pSTGGKAPRKQL-K(Biot)-NH2 [H3.1K9me3S10p] | – | 0.03312 | 0.1329 | 0.1409 | 0.1411 | – | – | 0.04961
23 | ARTKQTARK(Me)STGGKAPRKQL-K(Biot)-NH2 [Peptide H3.1K9me1] | – | 0.001651 | 0.2555 | 0.4772 | 0.000221 | – | – | 0.4905
24 | Ac-APRKQLATK(Me3)AARKSAPATGG-Peg-K(Biot)-NH2 [Peptide H3.1K23me3] | 5.2822e-5 | 0.005165 | – | – | 0.01355 | – | – | 0.09452
25 | Ac-APRKQLATKAAR(Me2a)K(Me3)SAPSTGG-Peg-Biot [H3.3R26me2aK27me3] | 0.914 | 0.2433 | 0.1003 | 0.0125 | 0.0032 | – | 0.1727 | 0.04277
26 | Ac-APRKQLATKAARK(Me2)SAPSTGG-Peg-Biot [Peptide H3.3K27me2] | 0.0115 | 0.003304 | 0.3374 | 0.0005313 | – | – | 0.08888 | –
27 | Ac-APRKQLATKAARK(Me3)SAPSTGG-Peg-Biot [Peptide H3.3K27me3] | 1 | 0.2205 | 0.04567 | – | 0.01689 | – | 0.1275 | –
28 | Ac-GKGGAKRHRK(Me2)VLRDNIQ-Peg-Biot [Peptide H4K20me2] | 0.000354 | – | 1 | 0.06608 | 0.01321 | 0.04168 | – | –
29 | Ac-SGRGK(Me)GGK(Ac)GLGK(Me)GGAKRHRKVLR-Peg-Biot [H4K5me1K8acK12me1] | – | 0.001936 | – | 0.02853 | 0.03017 | 0.01549 | – | 0.009322
30 | Ac-SGRGK(Me)GGK(Me)GLGK(Me)GGAKRHRKVLR-Peg-Biot [H4K5me1K8me1K12me1] | – | – | – | 0.06188 | 0.004623 | 0.1176 | 0.4707 | –
31 | Ac-SGRGKGGKGLGKGGAK(Ac)RHRK(Ac)VLR-Peg-Biot [Peptide H4K16acK20ac] | – | 0.001622 | – | 0.002797 | 0.03564 | 0.000726 | 0.04591 | –
32 | Ac-pSGR(Me2a)GK(Ac)QGGKARAKAKTR-Peg-Biot [H2AS1pR3me2aK5ac] | 0.0004026 | – | 0.1102 | 0.08644 | 0.0003455 | 0.05587 | – | –
